{
  "source": "patent US20160237450A1",
  "about": "“METHOD FOR ENHANCING DROUGHT TOLERANCE IN PLANTS” (Plant Response Biotech S.L., priority 2015, published 2016)",
  "type_in_all_cases": "in vivo",
  "key": {"pepper plants ('Murano')": {"test_system": "pepper plants ('Murano')", "experiment": "Pepper plant survival under extreme drought", "method": "(§1) For each drought or limited water experiment 480 seeds (of either pepper, barley, tomato, cucumber or corn) were sown, producing 384 plants in 512 cm^3 pots (4 plants per pot). Plants were grown under chamber conditions at 21° C. for 3 weeks. Then, the plants were moved to a greenhouse, where average temperature was 25° C. to 28° C. Spray and irrigation treatments as described herein were done when the plants had two extended leaves and the next pair of leaves were coming up.\n(§2) Treatments: Twelve pots (containing 48 plants) were irrigated with 40 ml of either: water, 0.1 g/L TMAO di-hydrate solution, 1.0 g/L TMAO di-hydrate solution, or 5.5 g/L TMAO di-hydrate solution. Another set of 12 pots containing 48 plants were sprayed with 40 ml of either water (3.3 ml in average per pot), a solution containing 0.1 g/L TMAO di-hydrate solution, 1.0 g/L TMAO di-hydrate, or 5 g/L, or 10 g/L TMAO di-hydrate. Further sets of 12 pots containing 48 plants were both sprayed with each initial solution TMAO di-hydrate solution and further irrigated with the same TMAO di-hydrate solutions used in the control water sprayed plants. All pots were also watered with 40 ml of water. The sprayed plants were watered with the same volume of water as the “irrigated plants). The pots were located on plastic glass to maintain constant moisture and to avoid liquid spillage during watering. Trays containing the pots were located on greenhouse tables. The distribution of the trays on the table and the position on the pots in the tray was changed every week to avoid position effects.\nAfter the treatments described above, the plants were not watered until the pots completely lost their moisture, taking about 4 to 8 days depending on the season, at which point the plants were extremely wilted for the extreme drought experiments. The plants were then watered once with solutions containing the different amounts of TMAO di-hydrate (0.1 g/L, 1.0 g/L, 5 g/L, or 10 g/L) or just water, after which the plants were left to lose their moisture completely again for three consecutive cycles of watering after wilting. For the “extreme drought” experiments plants were allowed to wilt severely before watering and then the plant survival rate was recorded and analyzed.\nTMAO di-hydrate applied exogenously, which increases the endogenous content of TMAO as if the plants were overexpressing an FMO protein at least 4 times increases plant survival in pepper plants under extreme drought conditions. ‘Murano’ pepper seeds were sown, grown and treated as described above."}, "barley plants ('Bomi')": {"test_system": "barley plants ('Bomi')", "experiment": "Barley dry weight under drought", "method": "as §1, §2\nAfter the treatments described above, the plants were not watered until the pots completely lost their moisture, taking about 4 to 8 days depending on the season, at which point the plants were extremely wilted for the extreme drought experiments. […] For the “extreme drought” experiments plants were allowed to wilt severely before watering and then the plant survival rate was recorded and analyzed. […]"}, "sunflower plants": {"test_system": "sunflower plants", "experiment": "Sunflower field chlorophyll content and seed production after seed treatment", "settings": "seed treatment 1 g/l/Kg, natural stress", "method": "In order to determine the drought or drought stress tolerance after seed treatments with TMAO di-hydrate and germination in the presence of TMAO di-hydrate, barley “Hispanic” seeds, corn “FAO700” seeds, and “Sambro” sunflower seeds were surface sterilized for 3 minutes in ethanol 70%, then rinsed twice and finally included in a pre-treatment solution of 1 g/L TMAO di-hydrate solution (or just water) under shaking for 3 hours at a dose of 1 litre per Kg of seeds. Then, the seeds were sown in randomized plots of 10 sqm in a surface of 2.000 sqm. Chlorophyll content was measured 1 month before harvest. In corn irrigation was applied in half of the plots while the other half only received an initial establishment watering. The barley plots received 200 l of rain per m^2 through the growing season. Some of the plots received a second spray treatment with 1 g/liter of TMAO. […] At least 3 independent plants were treated per experiment.\nTMAO di-hydrate applied exogenously which increases the endogenous content of TMAO as if the plants were overexpressing an FMO protein at least 4 times increases plant production in sunflower plants grown in the field without external irrigation. ‘Sambra” sunflower seeds were sown, grown and treated as described above. Seed treatment (1 g/l/Kg TMAO) increased plant chlorophyll content and seed production. […] Both chlorophyll and weight differences between control and TMAO groups are statistically significant. Relative chlorophyll content values are obtained by optical absorbance in two different wavebands: 653 nm (chlorophyll) and 931 nm (Near Infra-Red)."}, "[1]": {"test_system": "broccoli plants ('Parthenon')", "experiment": "Broccoli inflorescence production under limited water", "settings": "30% water; for % Control (inflorescence weight): versus untreated 30% water", "excerpt": "TMAO di-hydrate applied exogenously which increases the endogenous content of TMAO as if the plants were overexpressing an FMO protein at least 4 times increases plant production in broccoli under limited water irrigation. ‘Parthenon’ broccoli seeds were sown, grown and treated as described above. Spray and irrigation treatments with 1 g/L TMAO di-hydrate increased plant production, as measured by the average weight of the crown plus stems in grams."}, "[2]": {"experiment": "TMAO accumulation in barley leaves after spray (NMR)", "settings": "1 g/l spray formulated with 0.1% C8-C10 Alkylpolysaccharide, 1 day post spray", "method": "At least three independent plants were treated per experiment.\nLeaves were harvested and TMAO was determined by NMR."}},
  "data": [
    {"smiles": "C[N+](C)(C)[O-].O.O", "note": "[TMAO di-hydrate, trimethylamine N-oxide di-hydrate]", "values": [
      {"measurement": "SURVIVAL RATE (%)", "setting": "pepper plants ('Murano'); irrigation 0.1 g/L, initial spray 0.1 g/L", "value": "33.3 ± 8.3", "unit": "%"},
      {"measurement": "SURVIVAL RATE (%)", "setting": "pepper plants ('Murano'); irrigation 0.1 g/L, initial spray 1 g/L", "value": "54.1 ± 8.3", "unit": "%"},
      {"measurement": "SURVIVAL RATE (%)", "setting": "pepper plants ('Murano'); irrigation 0.1 g/L, initial spray 10 g/L", "value": "83.3 ± 8.3", "unit": "%"},
      {"measurement": "SURVIVAL RATE (%)", "setting": "pepper plants ('Murano'); irrigation 0.1 g/L, initial spray water", "value": "29.1 ± 8.3", "unit": "%"},
      {"measurement": "SURVIVAL RATE (%)", "setting": "pepper plants ('Murano'); irrigation 1 g/L, initial spray 0.1 g/L", "value": "33.3 ± 7.7", "unit": "%"},
      {"measurement": "SURVIVAL RATE (%)", "setting": "pepper plants ('Murano'); irrigation 1 g/L, initial spray 1 g/L", "value": "33.3 ± 7.7", "unit": "%"},
      {"measurement": "SURVIVAL RATE (%)", "setting": "pepper plants ('Murano'); irrigation 1 g/L, initial spray 10 g/L", "value": "37.5 ± 7.7", "unit": "%"},
      {"measurement": "SURVIVAL RATE (%)", "setting": "pepper plants ('Murano'); irrigation 1 g/L, initial spray water", "value": "0.0 ± 7.7", "unit": "%"},
      {"measurement": "SURVIVAL RATE (%)", "setting": "pepper plants ('Murano'); irrigation 5 g/L, initial spray 0.1 g/L", "value": "100 ± 3.8", "unit": "%"},
      {"measurement": "SURVIVAL RATE (%)", "setting": "pepper plants ('Murano'); irrigation 5 g/L, initial spray 1 g/L", "value": "100 ± 3.8", "unit": "%"},
      {"measurement": "SURVIVAL RATE (%)", "setting": "pepper plants ('Murano'); irrigation 5 g/L, initial spray 10 g/L", "value": "87.5 ± 3.8", "unit": "%"},
      {"measurement": "SURVIVAL RATE (%)", "setting": "pepper plants ('Murano'); irrigation 5 g/L, initial spray water", "value": "95.8 ± 3.8", "unit": "%"},
      {"measurement": "SURVIVAL RATE (%)", "setting": "pepper plants ('Murano'); irrigation all regimes, initial spray 0.1 g/L", "value": "51.0 ± 3.6", "unit": "%"},
      {"measurement": "SURVIVAL RATE (%)", "setting": "pepper plants ('Murano'); irrigation all regimes, initial spray 1 g/L", "value": "62.5 ± 3.6", "unit": "%"},
      {"measurement": "SURVIVAL RATE (%)", "setting": "pepper plants ('Murano'); irrigation all regimes, initial spray 10 g/L", "value": "71.8 ± 3.6", "unit": "%"},
      {"measurement": "SURVIVAL RATE (%)", "setting": "pepper plants ('Murano'); irrigation water, initial spray 0.1 g/L", "value": "37.5 ± 8.1", "unit": "%"},
      {"measurement": "SURVIVAL RATE (%)", "setting": "pepper plants ('Murano'); irrigation water, initial spray 1 g/L", "value": "62.5 ± 8.1", "unit": "%"},
      {"measurement": "SURVIVAL RATE (%)", "setting": "pepper plants ('Murano'); irrigation water, initial spray 10 g/L", "value": "79.1 ± 8.1", "unit": "%"},
      {"measurement": "AVERAGE DRY weight ± S.E.", "setting": "barley plants ('Bomi'); initial treatment 1 g/L sprayed, irrigations water, three cycles of wilt-watering", "value": "1205.4 ± 60.37", "unit": "mg"},
      {"measurement": "AVERAGE DRY weight ± S.E.", "setting": "barley plants ('Bomi'); initial treatment 1 g/L watered, irrigations water, three cycles of wilt-watering", "value": "1371.4 ± 66.13", "unit": "mg"},
      {"measurement": "AVERAGE DRY weight ± S.E.", "setting": "barley plants ('Bomi'); no initial treatment, irrigations 1 g/L", "value": "1216.1 ± 33.44", "unit": "mg"},
      {"measurement": "% GAIN/LOSS RESPECT TO THE CONTROL, chlorophyll content", "setting": "sunflower plants", "value": 30, "unit": "%"},
      {"measurement": "% GAIN/LOSS RESPECT TO THE CONTROL, weight of seeds from 1 plant", "setting": "sunflower plants", "value": 77.7, "unit": "%"},
      {"measurement": "C[…] (OD663/OD931, AVERAGE VALUE)", "setting": "sunflower plants", "value": "21.17 ± 0.54"},
      {"measurement": "WEIGHT (GRAMS) OF SEEDS FROM 1 PLANT, AVERAGE VALUE", "setting": "sunflower plants", "value": "161.3 ± 13.1", "unit": "GRAMS"},
      {"measurement": "AVERAGE WEIGHT (grams/inflorescence)", "setting": "[1]; 1 g/L irrigation", "value": "85.2 ± 4.6", "unit": "grams/inflorescence"},
      {"measurement": "% Control (inflorescence weight)", "setting": "[1]; 1 g/L irrigation", "value": 106, "unit": "%"},
      {"measurement": "AVERAGE WEIGHT (grams/inflorescence)", "setting": "[1]; 1 g/L spray", "value": "87.3 ± 6.7", "unit": "grams/inflorescence"},
      {"measurement": "% Control (inflorescence weight)", "setting": "[1]; 1 g/L spray", "value": 108, "unit": "%"},
      {"measurement": "TMAO % Control", "setting": "[2]", "value": 822, "unit": "%"},
      {"measurement": "TMAO (μM) in leaves", "setting": "[2]", "value": 4633.2, "unit": "µM"}
    ]}
  ]
}
